Broadly, the inhibition is the percentage by which the read-out fell short of the control. A low value points to a weak effect.

Test [1] addresses T1, Estrogen receptor (Rattus norvegicus) (UniProt P06211+Q62986). The test is described as follows: Estrogenic activity as percent of control at 5 ug subcutaneous dose. It counts as functional.
In test [2] the target is T1, Estrogen receptor (Rattus norvegicus). The test is described as follows: Estrogenic activity as percent of control at 50 ug subcutaneous dose. It counts as functional.
Test [3] has the same target. In words: Estrogenic activity as percent of control at 100 ug subcutaneous dose. It counts as functional.
For test [4] the target is unchanged. The test is described as follows: Anti-uterotrophic activity in immature rats at 100 ug. In kind it is functional.
Test [5] shares this target. In words: Anti-uterotrophic activity in immature rats at 50 ug. In kind it is functional.
Test [6] has the same target. In words: Anti-uterotrophic activity in immature rats at 5 ug. In kind it is functional.
Test [7] has the same target. The test is described as follows: Estrogenic activity in immature rats and assayed as uterine weight gain at 0.05 ug subcutaneous dose. In kind it is functional.
The target is the same in test [8]. The test is described as follows: Estrogenic activity in immature rats and assayed as uterine weight gain at 100 ug subcutaneous dose. In kind it is functional.
For test [9] the target is unchanged. In words: Estrogenic activity in immature rats and assayed as uterine weight gain at 5 ug subcutaneous dose. It counts as functional.
For test [10] the target is unchanged. The test is described as follows: Estrogenic activity in immature rats and assayed as uterine weight gain at 50 ug subcutaneous dose. In kind it is functional.
Test [11] has the same target. The test is described as follows: Antiuterotrophic activity in immature rats at 100 ug. It counts as functional.
Test [12] has the same target. The test is described as follows: Antiuterotrophic activity in immature rats at 50 ug. In kind it is functional.
For test [13] the target is unchanged. In words: Antiuterotrophic activity in immature rats at 5 ug. In kind it is functional.
For test [14] the target is unchanged.
The species entered for another test is Rattus norvegicus. In words: Antiimplantation activity in sperm-positive female albino rats mated to coeval males of proven fertility. It counts as functional.
Test [15] has as its target T1, Estrogen receptor (Rattus norvegicus). In words: Estrogenic activity as percent of control at 500 ug subcutaneous dose. It counts as functional.
The target is the same in test [16]. The test is described as follows: Estrogenic activity in immature rats and assayed as uterine weight gain at 500 ug subcutaneous dose. In kind it is functional.

With `COc1ccc2c(c1)OC(C)(C)C(c1ccccc1)C2c1ccc(OCCN2CCCC2)cc1` (racemic), the Control in test [1] was determined as 174%; in [2] it was 281%; in test [3], 288%. Also, the Uterine wet weight worked out at 56 in [4]; 60.3 in test [5]; 52.5 in [6]; 16.6 in [7]; 49 in [8]; 29.5 in [9]. In addition, the Uterine wet weight in [10] was determined as 47.7; in [14] it was 16.3. In addition, the inhibition was found to be 16.7% in [4], 8.1% in [5] and 23.8% in test [6]. The values for the Stimulation in test [11], in test [12] and in test [13] were 87%, 94% and 82%, respectively.
In the case of `COc1ccc2c(c1)OC(C)(C)C(c1ccccc1)C2c1ccc(OCCN2CCCC2)cc1` (racemic) [ORMELOXIFENE], the MED in the test filed under Rattus norvegicus stood at 0.25 mg/kg.
Turning to `COc1ccc2c(c1)OC(C)(C)C(c1ccccc1)C2c1ccc(OCCN2CCCC2)cc1` (stereo in doubt; form 1), the Control in [1] turned out to be 187%; in test [2], 238%; in test [15], 267%; in test [3], 238%. Besides, the Uterine wet weight came out at 42.3 in [4]; 55.7 in test [5]; 52.3 in [6]; 16.2 in test [7]; 40.4 in test [8]; 31.8 in [9]. Moreover, the results for the Uterine wet weight in test [10], in test [16] and in test [14] were 40.5, 45.4 and 16.8, respectively. For the same compound, the inhibition was 28.4% in test [4] and 1.9% in test [6]. Further, the figures for the Stimulation in test [11], in test [12] and in [13] were 80%, 105% and 99%, respectively.
In the case of `COc1ccc2c(c1)OC(C)(C)C(c1ccccc1)C2c1ccc(OCCN2CCCC2)cc1` (stereo in doubt; form 1) [ORMELOXIFENE], the MED in the test filed under Rattus norvegicus was determined as 5 mg/kg.
For the compound `COc1ccc2c(c1)OC(C)(C)C(c1ccccc1)C2c1ccc(OCCN2CCCC2)cc1` (stereo in doubt; form 2), the Control in test [1] came out at 222%; in test [2] it was 286%; in [3], 303%. Besides, the Uterine wet weight in test [4] is 46.4; in test [5], 52.6; in [6], 52.7; in test [7] it was 15.8; in test [8], 51.4; in test [9] it was 37.8. Moreover, the figures for the Uterine wet weight in test [10] and in test [14] were 48.6 and 25.8, respectively. For the same compound, the inhibition in [4] stood at 40.3%; in test [5], 28.7%; in test [6], 28.7%. The figures for the Stimulation in test [11], in test [12] and in test [13] were 68%, 77% and 77%, respectively.
`COc1ccc2c(c1)OC(C)(C)C(c1ccccc1)C2c1ccc(OCCN2CCCC2)cc1` (stereo in doubt; form 2) [ORMELOXIFENE] returned an MED in the test filed under Rattus norvegicus of 0.15 mg/kg.
Consider `COc1ccc2c(c1)CCC(c1ccccc1)=C2c1ccc(OCCN2CCCC2)cc1` [NAFOXIDINE], for which the minimal effective dose in the test filed under Rattus norvegicus (Rattus norvegicus, read-out: MED) was determined as 0.1 mg/kg.

(Values after ChEMBL document CHEMBL1123448, “Studies in antifertility agents. 50. Stereoselective binding of d- and l-centchromans to estrogen receptors and their antifertility activity” (1986).)
